The text below walks through data of US6720424B1, “Aminobenzoic acid derivatives” (Taisho Pharmaceutical Co., Ltd., priority 1999, dated 2004).

Data set [1] concerns the target T1, KDR (Homo sapiens, UniProt P35968).
T1 construct: expressed in transfected cells; host or cells: NIH3T3
Briefly: (125I)-VEGF binding inhibition on NIH3T3 cells in which KDR was forced to be expressed. Conditions: KDR-expressing NIH3T3 cells, (125I)-VEGF 25 pM, 90 minutes, read-out: IC50 (concentration of 50% binding inhibition). Here is the method: According to the method described in a document (Cell Growth & Differentiation, vol. 7, pp. 213-221, 1996), the following tests were carried out.
NIH3T3 cells in which Flt-1 was forced to be expressed were seeded on a 24-well collagen-coated plate (7×10^4/well), and were cultured in Dulbecco's modified Eagle's medium (DMEM) including 10% bovine serum and 200 μg/ml of Geneticin G418, for 24 hours at 37° C. under an atmosphere of 5% carbon dioxide gas. The cells were preincubated in Buffer A (including 10 mM HEPES (N-2-hydroxyethylpiperazine-N′-2-ethanesulfonic acid) and 0.1% BSA (bovine serum albumin) in DMEM), for 30 minutes at 4° C. Subsequently, the medium was replaced with Buffer B (including 10 mM HEPES and 0.5% BSA in DMEM). A test solution prepared by dissolving each of the test compounds shown in Table 19 in dimethylsulfoxide and subsequently diluting the solution into a prescribed concentration with Buffer B, and (^125I)-VEGF (the final concentration was set to 25 pM) were added thereto. Binding reaction was carried out for 90 minutes at […]. After completion of the reaction, the cells were washed three times with ice-cooled Buffer A. Subsequently, 0.5 ml of 0.5M NaOH were added to each well, and the cells were lysed in 30 minutes at room temperature. The radioactivity of the lysed cells in each well was measured by means of a gamma counter, and a total binding quantity of (^125I)-VEGF was calculated. Nonspecific binding quantity of (^125I)-VEGF was measured by competition assay in the presence of 10 nM non-labeled VEGF. The specific binding quantity of (^125I)-VEGF was calculated from the difference between the total binding quantity of (^125I)-VEGF and nonspecific binding quantity of (^125I)-VEGF.
The binding inhibition index of the test compounds was calculated by the following equation. [formula]
From this value, a concentration of 50% binding inhibition (IC50) of the test compound was calculated.
Test on each of the test compounds shown in Table 20 and Table 21 was carried out employing NIH3T3 cells in which KDR was forced to be expressed, in the same manner as described in Experimental Example 1 described above.

By melting point is commonly meant the temperature, or range, at which the solid turns liquid.

Structures are written as SMILES. Like-named read-outs stand apart in the source and are kept apart here.

T1 sequence (P35968 20-1356): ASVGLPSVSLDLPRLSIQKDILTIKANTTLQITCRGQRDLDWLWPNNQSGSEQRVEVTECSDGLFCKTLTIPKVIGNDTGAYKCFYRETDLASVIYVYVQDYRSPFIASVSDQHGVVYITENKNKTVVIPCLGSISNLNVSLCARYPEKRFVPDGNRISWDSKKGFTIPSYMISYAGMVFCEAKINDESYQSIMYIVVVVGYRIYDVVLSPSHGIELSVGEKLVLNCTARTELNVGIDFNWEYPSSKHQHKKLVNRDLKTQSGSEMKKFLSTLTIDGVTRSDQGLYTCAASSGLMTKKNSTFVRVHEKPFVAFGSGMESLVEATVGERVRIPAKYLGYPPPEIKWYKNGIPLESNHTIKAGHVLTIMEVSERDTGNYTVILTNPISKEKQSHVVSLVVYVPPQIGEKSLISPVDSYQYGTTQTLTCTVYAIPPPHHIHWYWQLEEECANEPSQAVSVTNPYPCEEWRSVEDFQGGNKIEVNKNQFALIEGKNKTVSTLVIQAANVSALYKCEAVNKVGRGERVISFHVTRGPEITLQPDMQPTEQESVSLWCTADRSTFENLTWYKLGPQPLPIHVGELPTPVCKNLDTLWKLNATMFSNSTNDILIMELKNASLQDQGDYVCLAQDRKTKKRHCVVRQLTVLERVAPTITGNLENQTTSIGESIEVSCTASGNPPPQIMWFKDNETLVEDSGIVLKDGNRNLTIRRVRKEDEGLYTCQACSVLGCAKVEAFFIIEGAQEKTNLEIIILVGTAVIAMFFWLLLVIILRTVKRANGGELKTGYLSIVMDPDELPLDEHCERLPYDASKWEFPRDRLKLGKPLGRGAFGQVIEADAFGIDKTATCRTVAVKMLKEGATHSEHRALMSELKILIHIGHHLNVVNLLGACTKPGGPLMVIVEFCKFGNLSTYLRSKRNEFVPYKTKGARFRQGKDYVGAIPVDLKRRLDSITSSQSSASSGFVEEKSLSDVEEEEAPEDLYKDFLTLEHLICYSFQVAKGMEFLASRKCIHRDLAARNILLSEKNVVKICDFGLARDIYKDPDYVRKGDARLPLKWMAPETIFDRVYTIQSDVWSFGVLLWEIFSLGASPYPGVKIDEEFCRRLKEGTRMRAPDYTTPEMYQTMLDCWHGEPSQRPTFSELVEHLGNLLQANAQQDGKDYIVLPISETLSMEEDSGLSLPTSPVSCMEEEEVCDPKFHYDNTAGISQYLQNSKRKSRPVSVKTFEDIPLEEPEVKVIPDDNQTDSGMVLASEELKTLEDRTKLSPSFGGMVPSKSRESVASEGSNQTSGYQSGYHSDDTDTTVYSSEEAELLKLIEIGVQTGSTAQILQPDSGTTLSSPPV

The compound `CCCCCCCCCCNC(=O)[C@H](CC(=O)O)NC(=O)CCCOc1ccc(CCC(=O)Nc2ccc(SC)c(C(=O)OC)c2)cc1` [Compound 105] came in with a melting point of 165 to 167 °C.

As to `CCCCCCCCCCCCCCCCCCOc1ccc(OCC(=O)Nc2ccc(SC)c(C(=O)O)c2)cc1` [Compound 133], the melting point is 165 to 169 °C. In data set [1] (Table 21), the IC50 is 0.16 µM.

Turning to `CCCCCCCCCCCCCCCCCCNc1ccc(CCC(=O)Nc2ccc(SC)c(C(=O)O)c2)cc1` [Compound 164], the melting point is 151 to 158 °C. Further, the IC50 in data set [1] (Table 21) is 0.57 µM.

As for `CCCCCCCCCCCCCCCCCCOc1ccc(CCC(=O)Nc2ccc(SC)c(C(=O)O)c2)cc1` [Compound 115], the melting point was 185 to 194 °C. Moreover, the IC50 in data set [1] (Table 21) was 0.15 µM.

`CCCCCCCCCCCCCCCCCC(=O)Nc1ccc(CC(=O)Nc2ccc(SC)c(C(=O)O)c2)cc1` [Compound 130] registered a melting point of 214 to 217 °C. In addition, the IC50 in data set [1] (Table 21) was 0.23 µM.

For the compound `CCCCCCCCCCCCCCCCCCOc1ccc(CCC(=O)N(CC)c2ccc(SC)c(C(=O)O)c2)cc1` [Compound 149], the melting point lay within 108 to 110 °C. In addition, in data set [1] (Table 21), the IC50 was determined as 0.14 µM.

Compound `CCCCCCCCCCCCCCCCCCOc1ccc(CCC(=O)Nc2ccc(Sc3cccc(C(=O)O)c3)c(C(=O)O)c2)cc1` [Compound 42] returned a melting point of 194 to 198 °C. In data set [1] (Table 20), the IC50 was determined as 0.45 µM.

As to `CCCCCCCCCCCCCCCCCCOc1ccc(CC(=O)N(C)c2ccc(SCCC)c(C(=O)O)c2)cc1` [Compound 155], the melting point was 76 to 80 °C. The IC50 in data set [1] (Table 21) was 0.67 µM.

In the case of `CCCCCCCCCCCCCCCCCCOc1ccc(CCC(=O)Nc2ccc(Sc3ccc(C(=O)O)cc3)c(C(=O)O)c2)cc1` [Compound 41], the melting point lay within 198 to 203 °C. Also, in data set [1] (Table 20), the IC50 was determined as 0.37 µM.

Compound `CCCCCCCCCCCCCCOc1ccc(OCCCCCC(=O)Nc2ccc(SC)c(C(=O)O)c2)cc1` [Compound 135] showed a melting point of 199 to 202 °C. The IC50 in data set [1] (Table 21) was 0.45 µM.

Take `CCCCCCCCCCCCCCCCCCOc1ccc(CC(=O)Nc2ccc(SC)c(C(=O)O)c2)cc1` [Compound 116]: the melting point lay within 200 to 204 °C. The IC50 in data set [1] (Table 21) turned out to be 0.16 µM.

For the compound `CCCCCCCCCCCCCCCCCCOc1ccc(CCC(=O)Nc2ccc([S+](C)[O-])c(C(=O)OC)c2)cc1` (centres unmarked) [Compound 106], the melting point fell in the range of 65 to 67 °C.

As for `CCCCCCCCCCCCCCCCCCOc1ccc(CCC(=O)Nc2ccc(SC)c(C(=O)O)c2)cc1OC` [Compound 119], the melting point was 174 to 176 °C. In addition, the IC50 in data set [1] (Table 21) is 0.29 µM.

In turn, `CCCCCCCCCCCCCCCCCCOc1ccc(CCC(=O)Nc2cc(C(=O)O)ccc2SCC)cc1` [Compound 146] had a melting point of 174 to 177 °C. The IC50 in data set [1] (Table 21) came out at 0.63 µM.

`CCCCCCCCCCCCCCCCCCCCCCOc1ccc(CCC(=O)Nc2ccc(SC)c(C(=O)O)c2)cc1` [Compound 118] displayed a melting point of 209 to 212 °C. The IC50 in data set [1] (Table 21) was 1.58 µM.

Compound `CCCCCCCCCCCCCCCCCCOc1ccc(CC(=O)Nc2ccc(SCC)c(C(=O)O)c2)cc1` [Compound 143] registered a melting point of 149 to 153 °C. The IC50 in data set [1] (Table 21) was 0.76 µM.

`CCCCCCCCCCCCCCCCCCOc1ccc(CC(=O)N(C)c2ccc(SC)c(C(=O)OC)c2)cc1` [Compound 91] displayed a melting point of 60 to 69 °C.

Regarding `CCCCCCCCCCCCCCCCCCOc1ccc(CCC(=O)Nc2ccc(Sc3ccc(C(=O)O)cn3)c(C(=O)O)c2)cc1` [Compound 44], the melting point lay within 221 to 223 °C. For the same compound, the IC50 in data set [1] (Table 20) came out at 0.91 µM.

`CCCCCCCCCCCCCCCCCCOc1ccc(CCC(=O)Nc2cc(C(=O)O)ccc2Oc2cccc(C(=O)O)c2)cc1` [Compound 36] displayed a melting point of 212 to 216 °C. Besides, the IC50 in data set [1] (Table 20) came to 1.27 µM.

`CCCCCCCCCCCCCCCCCCOc1ccc(NCC(=O)Nc2ccc(SC)c(C(=O)O)c2)cc1` [Compound 163] came in with a melting point of 163.5 to 169.5 °C. For the same compound, the IC50 in data set [1] (Table 21) was 0.41 µM.

`CCCCCCCCCCCCCCCCCC(=O)Nc1cccc(CC(=O)Nc2ccc(SC)c(C(=O)O)c2)c1` [Compound 131] returned a melting point of 224 to 228 °C. The IC50 in data set [1] (Table 21) is 0.31 µM.

Consider `CCCCCCCCCCCCCCCCCCOc1ccc(CCC(=O)N(CC2CC2)c2ccc(SC)c(C(=O)O)c2)cc1` [Compound 150], for which the melting point lay in the range of 126 to 128 °C. Also, in data set [1] (Table 21), the IC50 came to 0.59 µM.

`CCCCCCCCCCCCCCCCCCOc1ccc(CCC(=O)N(C)c2ccc(SC)c(C(=O)OC)c2)cc1` [Compound 90] came in with a melting point of 65.5 to 66.5 °C.

Take `CCCCCCCCCCCCCCCCCCOc1ccc(CC(=O)N(C)c2ccc(SCCO)c(C(=O)O)c2)cc1` [Compound 161]: the melting point lay within 114 to 117.5 °C. The IC50 in data set [1] (Table 21) was 1.3 µM.

In turn, `CCCCCCCCCCCCCCCCCCOc1ccc(CCC(=O)Nc2ccc(Oc3ccc(CC(=O)O)cc3)c(C(=O)O)c2)cc1` [Compound 31] came in with a melting point of 170 to 173 °C. In addition, in data set [1] (Table 20), the IC50 was 1.23 µM.

Compound `CCCCCCCCCCCCCCCCCCOc1ccc(CCC(=O)N(Cc2ccccc2)c2ccc(SC)c(C(=O)O)c2)cc1` [Compound 151] gave a melting point of 127 to 129 °C. Also, the IC50 in data set [1] (Table 21) was 0.8 µM.

`CCCCCCCCCCCCCCCCCCOc1ccc(CCC(=O)Nc2ccc(Oc3cccc(CC(=O)O)c3)c(C(=O)O)c2)cc1` [Compound 32]: the melting point is 163 to 167 °C. The IC50 in data set [1] (Table 20) was found to be 0.93 µM.

For `CCCCCCCCCCCCCCCCCCOc1ccc(CCC(=O)Nc2ccc(Nc3ccccc3C(=O)O)c(C(=O)O)c2)cc1` [Compound 47], the melting point lay within 247 to 252 °C. The IC50 in data set [1] (Table 20) was determined as 0.94 µM.

For the compound `CCCCCCCCCCCCCCCCCCOc1ccc(CC(=O)N(C)c2ccc(SCCCO)c(C(=O)O)c2)cc1` [Compound 162], the melting point fell in the range of 104.5 to 106.5 °C. Besides, the IC50 in data set [1] (Table 21) stood at 1.16 µM.

Take `CCCCCCCCCCCCCCCCCCOc1ccc(CC(=O)N(C)c2ccc(SCC)c(C(=O)O)c2)cc1` [Compound 154]: the melting point was in the range of 87 to 88.5 °C. For the same compound, in data set [1] (Table 21), the IC50 amounted to 0.5 µM.

`CCCCCCCCCCCCCCCCCC(=O)Nc1ccccc1CC(=O)Nc1ccc(SC)c(C(=O)O)c1` [Compound 132] had a melting point of 247 to 250 °C. In addition, in data set [1] (Table 21), the IC50 came to 1.66 µM.

Compound `CCCCCCCCCCCCCCCCOc1ccc(CC(=O)Nc2ccc(SC)c(C(=O)O)c2)cc1` [Compound 127] showed a melting point of 200 to 205 °C. Further, in data set [1] (Table 21), the IC50 was found to be 1.16 µM.

With `CCCCCCCCCCOc1ccc(OCCCCCCCCCC(=O)Nc2ccc(SC)c(C(=O)O)c2)cc1` [Compound 137], the melting point fell in the range of 185 to 188 °C. Besides, in data set [1] (Table 21), the IC50 was 0.46 µM.

Take `CCCCCCCCCCCCOc1ccc(OCCCCCCCC(=O)Nc2ccc(SC)c(C(=O)O)c2)cc1` [Compound 136]: the melting point fell in the range of 193 to 196 °C. In data set [1] (Table 21), the IC50 amounted to 0.4 µM.

`CCCCCCCCCCCCCCCCCCOc1ccc(CCC(=O)Nc2ccc(Nc3ccc(C(=O)O)cc3)c(C(=O)O)c2)cc1` [Compound 45] yielded a melting point of 230 to 235 °C. Also, the IC50 in data set [1] (Table 20) was determined as 0.76 µM.

The compound `CCCCCCCCCCCCCCCCCCOc1ccc(CCC(=O)Nc2cc(C(=O)O)ccc2SCc2ccccc2)cc1` [Compound 148] gave a melting point of 178 to 181 °C. Also, the IC50 in data set [1] (Table 21) amounted to 0.93 µM.

In the case of `CCCCCCCCCCCCCCCCCCCCOc1ccc(CCC(=O)Nc2ccc(SC)c(C(=O)O)c2)cc1` [Compound 117], the melting point lay within 211 to 213 °C. In addition, the IC50 in data set [1] (Table 21) worked out at 0.32 µM.

In turn, `CCCCCCCCCCCCCCCCCCOc1ccc(CCC(=O)N(C)c2ccc(Oc3ccc(C(=O)OC)cc3)c(C(=O)OC)c2)cc1` [Compound 22] registered a melting point of 60 to 62 °C.

On to `CCCCCCCCCCCCCCCCCCOc1ccc(CCC(=O)Nc2ccc(Oc3ccc(/C=C/C(=O)O)cc3)c(C(=O)O)c2)cc1` [Compound 34], for which the melting point is 200 to 208 °C. In addition, the IC50 in data set [1] (Table 20) came out at 0.34 µM.

Consider `CCCCCCCCCCCCCCCCCC(=O)Nc1ccc(CCC(=O)Nc2ccc(SC)c(C(=O)O)c2)cc1` [Compound 120], for which the melting point lay within 257 to 260 °C. Moreover, the IC50 in data set [1] (Table 21) was found to be 0.44 µM.

As for `CCCCCCCCCCCCCCCCCCOc1ccc(CCC(=O)N(CC(=O)O)c2ccc(SC)c(C(=O)OC)c2)cc1` [Compound 102], the melting point lay within 102 to 106 °C.

Consider `CCCCCCCCCCCCCCCCCCOc1ccc(CC(=O)N(C)c2ccc(SCCO)c(C(=O)OC)c2)cc1` [Compound 109], for which the melting point was 92.5 to 94 °C.
